In PMC8286840, “Identifying SARS-CoV-2 antiviral compounds by screening for small molecule inhibitors of Nsp3 papain-like protease” (Biochemical Journal, 2021) one finds remaining activity data, which are given here for 29 molecules.

Assay [1] has as its target T1, SARS-CoV-2 PLpro (nsp3 1564–1878) (Severe acute respiratory syndrome coronavirus 2, UniProt P0DTD1). The assay can be described thus: biochemical. Details: FRET-quenched peptide (Pro3) cleavage by PLpro, 10 min pre-incubation, slope over 20 min, normalised to no-compound control. Conditions: high concentration screen, read-out: % of control remaining.
In assay [2] the target is T1, SARS-CoV-2 PLpro (nsp3 1564–1878). The assay can be described thus: biochemical. Also on record: FRET-quenched peptide (Pro3) cleavage by PLpro, 10 min pre-incubation, slope over 20 min, normalised to no-compound control. Conditions: low concentration screen, read-out: % of control remaining.
Method: The plates were organized with columns 3–22 containing the compounds; the remaining columns were used for reaction controls including substrate only and substrate with enzyme but no compound (Figure 3Aii). The PLpro enzyme was pre-incubated with the compounds for 10 min, and then the reaction was initiated by the addition of substrate. […] We incubated the inhibitors with PLpro before the enzymatic reaction so that the slow-binding inhibitors will not be missed out [21]. […] Fluorescence was read on a Spark multimode microplate reader (Tecan) with an excitation wavelength at 330 nm and emission wavelength at 420 nm. […] An amount of 5 µl of the enzyme was pre-incubated with compounds for 10 min before the addition of 15 µl substrate. Fluorescence was monitored at 2 min for 20 min with 3 min intervals giving a total of seven readings.

Counter-ions that a name gives are not always drawn. Like-named read-outs stand apart in the source and are kept apart here.

With `CCCCCC#CC[C@@H](O)/C=C/C=C/C=C\[C@@H](O)CCCC(=O)O` [14,15-Dehydroleukotriene B4], in assay [1] (Well no.=4518), the remaining activity at 3.75 µM was 94.4%. Moreover, the remaining activity at 1.25 µM in assay [2] (Well no.=4518) is 97.4%.
Take `CCCCC[C@H](O)/C=C/C=C\C/C=C\C/C=C\CCCC(=O)O` [15(S)-HETE]: the remaining activity at 3.75 µM in assay [1] (Well no.=4289) was determined as 97.2%. The remaining activity at 1.25 µM in assay [2] (Well no.=4289) was determined as 102%.
On to `CCCCC[C@H](O)/C=C/C=C\C/C=C\CCCCCCC(=O)O` [15(S)-HETrE], for which the remaining activity at 3.75 µM in assay [1] (Well no.=4229) worked out at 106%. For the same molecule, the remaining activity at 1.25 µM in assay [2] (Well no.=4229) turned out to be 99.3%.
Consider `CCCCC[C@@H](/C=C/C=C\CCCCCCCCCC(=O)O)OO` [15(S)-HPEDE], for which the remaining activity at 3.75 µM in assay [1] (Well no.=4333) came out at 105%. In addition, in assay [2] (Well no.=4333), the remaining activity at 1.25 µM was found to be 108%.
On to `CC/C=C\C[C@@H](/C=C/C=C\C/C=C\C/C=C\CCCC(=O)O)OO` [15(S)-HPEPE], for which the remaining activity at 3.75 µM in assay [1] (Well no.=4335) is 102%. In assay [2] (Well no.=4335), the remaining activity at 1.25 µM is 103%.
With `CCCCC[C@@H](/C=C/C=C\C/C=C\C/C=C\CCCC(=O)O)OO` [15(S)-HPETE], the remaining activity at 3.75 µM in assay [1] (Well no.=4331) came out at 98.7%. For the same molecule, the remaining activity at 1.25 µM in assay [2] (Well no.=4331) stood at 99.3%.
`CCCCCCCC/C=C\CCCCCCCCCCCCCC(=O)O` [15(Z)-Tetracosenoic acid]: the remaining activity at 3.75 µM in assay [1] (Well no.=4504) was determined as 98.5%. Also, in assay [2] (Well no.=4504), the remaining activity at 1.25 µM was 93.9%.
On to `CCCCCC(=O)/C=C/[C@H]1[C@H](O)CC(=O)[C@@H]1C/C=C\CCCC(=O)O` [15-keto-prostaglandin E2], for which the remaining activity at 3.75 µM in assay [1] (Well no.=4485) was determined as 96.6%. The remaining activity at 1.25 µM in assay [2] (Well no.=4485) amounted to 89%.
Turning to `CCCCCC(=O)/C=C/[C@@H]1[C@@H](C/C=C\CCCC(=O)O)[C@@H](O)C[C@H]1O` [15-keto-prostaglandin F2a], in assay [1] (Well no.=4571), the remaining activity at 3.75 µM is 88.5%. Further, the remaining activity at 1.25 µM in assay [2] (Well no.=4571) turned out to be 90.1%.
For `CCCCC(C)(C)[C@H](O)/C=C/[C@H]1[C@H](O)CC(=O)[C@@H]1C/C=C\CCCC(=O)O` [16,16-Dimethyl-prostaglandin E2], in assay [1] (Well no.=4517), the remaining activity at 3.75 µM came out at 99.3%. In addition, in assay [2] (Well no.=4517), the remaining activity at 1.25 µM stood at 96.1%.
In the case of `C[C@@]12CCc3occc3[C@H]1CC[C@]13CC(=O)[C@H](CC[C@H]12)C3` [16-Oxocafestol], in assay [1] (Well no.=3669), the remaining activity at 3.75 µM worked out at 91.5%. The remaining activity at 1.25 µM in assay [2] (Well no.=3669) amounted to 92.6%.
As to `C[C@@]12C=Cc3occc3[C@H]1CC[C@]13CC(=O)[C@H](CC[C@H]12)C3` [16-Oxokahweol], the remaining activity at 3.75 µM in assay [1] (Well no.=3693) turned out to be 99%. Besides, the remaining activity at 1.25 µM in assay [2] (Well no.=3693) turned out to be 94.8%.
With `C#CCCCCCCCCCCCCCCCC(=O)O` [17-Octadecynoic acid], the remaining activity at 3.75 µM in assay [1] (Well no.=4351) was found to be 104%. Also, in assay [2] (Well no.=4351), the remaining activity at 1.25 µM was found to be 105%.
In the case of `C[C@@H](O)CCC[C@H](O)/C=C/[C@H]1[C@H](O)CC(=O)[C@@H]1C/C=C\CCCC(=O)O` [19(R)-Hydroxy-prostaglandin E2], in assay [1] (Well no.=4533), the remaining activity at 3.75 µM is 88.8%. The remaining activity at 1.25 µM in assay [2] (Well no.=4533) was found to be 91.3%.
With `O=C(O)CCCC/C=C\C[C@@H](O)/C=C/C=C/C=C\[C@@H](O)CCCC(=O)O` [20-Carboxy-leukotriene B4], the remaining activity at 3.75 µM in assay [1] (Well no.=4427) was 98.4%. Further, the remaining activity at 1.25 µM in assay [2] (Well no.=4427) amounted to 94.3%.
For the molecule `O=C(O)CCC[C@H](O)\C=C/C=C/C=C/[C@H](O)C/C=C\CCCCCO` [20-Hydroxy-leukotriene B4], the remaining activity at 3.75 µM in assay [1] (Well no.=4425) was determined as 103%. Further, the remaining activity at 1.25 µM in assay [2] (Well no.=4425) was 101%.
Take `C=C1CC[C@H](O)C/C1=C\C=C1/CCC[C@]2(C)[C@@H]([C@H](C)CC[C@@H](O)C(C)(C)O)CC[C@@H]12` [24(R),25-Dihydroxyvitamin D3]: in assay [1] (Well no.=4424), the remaining activity at 3.75 µM turned out to be 88.6%. In addition, in assay [2] (Well no.=4424), the remaining activity at 1.25 µM was determined as 95.3%.
As to `C[C@H](CCCC(C)(C)O)[C@H]1CC[C@H]2[C@@H]3CC=C4C[C@@H](O)CC[C@]4(C)[C@H]3CC[C@]12C` [25-Hydroxycholesterol], the remaining activity at 3.75 µM in assay [1] (Well no.=6353) amounted to 101%. For the same molecule, the remaining activity at 1.25 µM in assay [2] (Well no.=6353) is 101%.
Consider `CO[C@H]1C[C@@H]2CC[C@@H](C)[C@@](O)(O2)C(=O)C(=O)N2CCCC[C@H]2C(=O)O[C@H]([C@H](C)C[C@@H]2CC[C@H](n3ncnn3)[C@H](OC)C2)CC(=O)[C@H](C)/C=C(\C)[C@@H](O)[C@@H](OC)C(=O)[C@H](C)C[C@H](C)/C=C/C=C/C=C/1C` [42-(2-Tetrazolyl)rapamycin], for which, in assay [1] (Well no.=7592), the remaining activity at 3.75 µM stood at 91.6%. The remaining activity at 1.25 µM in assay [2] (Well no.=7592) was found to be 91%.
Consider `CC(N)=NCc1cccc(CN)c1` [1400W dihydrochloride], for which the remaining activity at 3.75 µM in assay [1] (Well no.=1434) was found to be 90.8%. The remaining activity at 1.25 µM in assay [2] (Well no.=1434) came out at 88%.
For `Nc1ccn([C@H]2CC[C@@H](CO)O2)c(=O)n1` ["2',3' - Dideoxycytidine"], in assay [1] (Well no.=1980), the remaining activity at 3.75 µM was determined as 102%. In addition, in assay [2] (Well no.=1980), the remaining activity at 1.25 µM amounted to 103%.
On to `COc1cc(/C=C/C(=O)CC(=O)/C=C/c2ccc(O)cc2)ccc1O` [(1E,6E)-1-(4-hydroxy-3-methoxyphenyl)-7-(4-hydroxyphenyl)-1,6-heptadiene-3,5-dione], for which the remaining activity at 3.75 µM in assay [1] (Well no.=5795) is 95.2%. In assay [2] (Well no.=5795), the remaining activity at 1.25 µM is 90.1%.
With `O=C(Nc1cc(Cl)cc(Cl)c1)[C@H]1CCCC[C@H]1C(=O)O` [(1R,2S)-VU0155041], the remaining activity at 3.75 µM in assay [1] (Well no.=8475) came out at 103%. The remaining activity at 1.25 µM in assay [2] (Well no.=8475) worked out at 99%.
For the molecule `CCCCCCCCCCCCCCCCCCc1ccc(C(=O)/C=C/C(=O)O)cc1` [(2E)-4-(4-octadecylphenyl)-4-oxo-2-butenoic acid], the remaining activity at 3.75 µM in assay [1] (Well no.=5554) amounted to 99.3%. Besides, the remaining activity at 1.25 µM in assay [2] (Well no.=5554) was 97.9%.
As to `O=C(/C=C/c1cccnc1)NCCCCC1CCN(C(=O)c2ccccc2)CC1` [(2E)-N-[4-(1-benzoyl-4-piperidinyl)butyl]-3-(3-pyridinyl)-2-propenamide hydrochloride hydrate], the remaining activity at 3.75 µM in assay [1] (Well no.=5694) is 92.8%. Moreover, the remaining activity at 1.25 µM in assay [2] (Well no.=5694) was found to be 97.8%.
For the molecule `CCOc1cc2ncc(C#N)c(Nc3ccc(F)c(Cl)c3)c2cc1NC(=O)/C=C/CN(C)C` [(2E)-N-[4-(3-chloro-4-fluoroanilino)-3-cyano-7-ethoxy-6-quinolinyl]-4-(dimethylamino)-2-butenamide], the remaining activity at 3.75 µM in assay [1] (Well no.=5707) was 102%. Also, in assay [2] (Well no.=5707), the remaining activity at 1.25 µM was 101%.
As for `CCCOc1cc2c(cc1\C(C)=C/C=C/C(C)=C/C(=O)O)C(C)(C)CCC2(C)C` [(2E,4E,6Z)-3-methyl-7-(5,5,8,8-tetramethyl-3-propoxy-5,6,7,8-tetrahydro-2-naphthalenyl)-2,4,6-octatrienoic acid], the remaining activity at 3.75 µM in assay [1] (Well no.=6004) was found to be 93%. The remaining activity at 1.25 µM in assay [2] (Well no.=6004) came out at 92.7%.
Turning to `CCN(C)C(=O)Oc1cccc([C@H](C)N(C)C)c1` [(2R,3R)-2,3-dihydroxybutanedioic acid compound with 3-[(1S)-1-(dimethylamino)ethyl]phenyl ethyl(methyl)carbamate (1:1)], the remaining activity at 3.75 µM in assay [1] (Well no.=5811) is 98%. In assay [2] (Well no.=5811), the remaining activity at 1.25 µM is 96.9%.
As to `O=C1c2c(O)cc(O)cc2O[C@H](c2cc(O)c(O)c(O)c2)[C@H]1O` [(2R,3R)-3,5,7-trihydroxy-2-(3,4,5-trihydroxyphenyl)-2,3-dihydro-4H-chromen-4-one], in assay [1] (Well no.=5388), the remaining activity at 3.75 µM is 111%. Moreover, the remaining activity at 1.25 µM in assay [2] (Well no.=5388) worked out at 106%.
